For data set [1] the following is noted: human.
The conditions of data set [2]: human. The source holds these as a separate data set.
A short description of data set [3]: Comments (NB not yet translated). [column 'COMMENTAIRES' in source]. The following applies: human.
The conditions of data set [4]: human, serum.
The conditions of data set [5]: human. The source holds these as a separate data set.
The conditions of data set [6]: human. The source holds these as a separate data set.
The conditions of data set [7]: human. The source holds these as a separate data set.
For data set [8] the following is noted: human. This is another data set of the same source.
Data set [9] can be described thus: Proposed mechanism(s) of liver damage. [column 'MEC' in source]. To be noted: human.
The conditions of data set [10]: human. This is another data set of the same source.
The conditions of data set [11]: human, serum, 4383 h.
The conditions of data set [12]: human. This is another data set of the same source.
The nature of data set [13]: Times to onset, minimal and maximal, observed in the indexed observations. [column 'DELAI' in source]. To be noted: human.
The conditions of data set [14]: human. This is another data set of the same source.
For data set [15] the following is noted: human. The source holds these as a separate data set.
For data set [16] the following is noted: human, serum. This is another data set of the same source.
Data set [17] can be described thus: Highest frequency of moderate liver toxicity observed during clinical trials, expressed as a percentage. [column '% BIOL' in source]. To be noted: human.
The nature of data set [18]: Highest frequency of acute liver toxicity observed during clinical trials, expressed as a percentage. [column '% AIGUE' in source]. To be noted: human.
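Throughout, for Hepatotoxicity (association with vascular disease): count of indexed literature references reporting vascular liver injury in humans, e.g. peliosis hepatitis, hepatic veno-occlusive disease or Budd-Chiari syndrome.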
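Throughout, for Hepatotoxicity (benign tumour): value is a count of indexed literature references citing a benign tumour confirmed by histopathology.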
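Throughout, for Hepatotoxicity (choleostasis): human cholestatic liver injury, shown by histopathology or by peak ALT or AST elevation over alkaline phosphatase ratio below 2, value counts indexed literature reports.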
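Throughout, for Hepatotoxicity (chronic liver disease): chronic liver injury confirmed by histopathology or persistently raised serum aminotransferase activity beyond 6 months, value given as the count of indexed literature references.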
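Throughout, for Hepatotoxicity (cirrhosis): value is a count of indexed literature references reporting cirrhosis confirmed by histopathology.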
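Throughout, for Hepatotoxicity (cytolytic): human cytolytic liver injury, shown by histopathology or by a ratio above 5 of peak ALT or AST elevation to alkaline phosphatase elevation, value counts indexed references.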
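Throughout, for Hepatotoxicity (granulomatous hepatitis): value is a count of indexed literature references reporting granulomatous liver disease confirmed by histopathology.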
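Throughout, for Hepatotoxicity (malignant tumour): malignant tumour confirmed by histopathology, value gives the count of indexed literature references reporting it.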
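Throughout, for Hepatotoxicity (severe hepatitis): human clinical data: severe hepatitis, meaning potentially life-threatening liver failure or clinically observed cases, the value counts how many indexed literature references report it.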
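Throughout, for Hepatotoxicity (steatosis): steatosis confirmed by histopathology, value is the count of indexed references.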

Turning to `FC(F)OC(F)C(F)(F)F` (stereo not drawn), in data set [1], the “Hepatotoxicity (cirrhosis)” value is given as 0. For the same compound, the “Hepatotoxicity (association with vascular disease)” value in data set [2] is listed as 0. Moreover, the “Hepatotoxicity (comment)” value in data set [3] is listed as “AC_ANTI-TFA”. Also, the “Hepatotoxicity (acute)” value in data set [4] is 4; in [18], 0%. In data set [5], the “Hepatotoxicity (steatosis)” value is recorded as 0. Also, in data set [6], the “Hepatotoxicity (benign tumour)” value was found to be 0. For the same compound, the “Hepatotoxicity (animal toxicity known)” value in data set [7] is “yes”. Also, the “Hepatotoxicity (choleostasis)” value in [8] is recorded as 0. The “Hepatotoxicity (mechanism)” value in [9] is on record as “Reactive metabolite, Allergic”. The “Hepatotoxicity (cytolytic)” value in data set [10] was 4. In addition, the “Hepatotoxicity (chronic liver disease)” value in data set [11] came out at 0. The “Hepatotoxicity (granulomatous hepatitis)” value in data set [12] is recorded as 0. Also, the “Hepatotoxicity (time to onset)” value in data set [13] came to 1 day - 12 days. Further, in data set [14], the “Hepatotoxicity (malignant tumour)” value worked out at 0. For the same compound, in data set [15], the “Hepatotoxicity (severe hepatitis)” value is reported as 3. In addition, the entries for the “Hepatotoxicity (moderate)” value in data set [16] and in [17] were 2 and 11.1%, respectively.
Take `CC(=O)Oc1ccccc1C(=O)O` [ASPIRIN]: the “Hepatotoxicity (cirrhosis)” value in data set [1] is given as 1. Also, the “Hepatotoxicity (association with vascular disease)” value in [2] is 0. Moreover, in data set [3], the “Hepatotoxicity (comment)” value is “#S.REYE”. Also, the “Hepatotoxicity (acute)” value in data set [4] was determined as 31; in [18], 0%. Moreover, the “Hepatotoxicity (steatosis)” value in data set [5] came to 0. Besides, the “Hepatotoxicity (benign tumour)” value in data set [6] is on record as 0. In addition, in [7], the “Hepatotoxicity (animal toxicity known)” value was “yes”. In addition, the “Hepatotoxicity (choleostasis)” value in data set [8] is recorded as 2. The “Hepatotoxicity (mechanism)” value in data set [9] is reported as “Dose-dependant, Reactive metabolite”. Moreover, the “Hepatotoxicity (cytolytic)” value in data set [10] turned out to be 26. Also, in data set [11], the “Hepatotoxicity (chronic liver disease)” value is on record as 5. Further, the “Hepatotoxicity (granulomatous hepatitis)” value in [12] is 3. Moreover, the “Hepatotoxicity (time to onset)” value in data set [13] worked out at 1 week - 5 years. For the same compound, in data set [14], the “Hepatotoxicity (malignant tumour)” value turned out to be 0. For the same compound, the “Hepatotoxicity (severe hepatitis)” value in data set [15] is given as 6. Further, the “Hepatotoxicity (moderate)” value in [16] is given as 30; in data set [17], 66%.
As for `CO/N=C(\C(=O)N[C@@H]1C(=O)N2C(C(=O)O)=C(CSc3nc(=O)c(=O)[nH]n3C)CS[C@H]12)c1csc(N)n1` [CEFTRIAXONE], the “Hepatotoxicity (cirrhosis)” value in data set [1] is reported as 0. Also, the “Hepatotoxicity (association with vascular disease)” value in data set [2] came out at 0. Further, the “Hepatotoxicity (comment)” value in [3] is “PSEUDOLITHIASE”. The results for the “Hepatotoxicity (acute)” value in data set [4] and in data set [18] were 7 and 4.6%, respectively. Besides, the “Hepatotoxicity (steatosis)” value in data set [5] is reported as 0. In addition, in data set [6], the “Hepatotoxicity (benign tumour)” value was 0. Further, the “Hepatotoxicity (animal toxicity known)” value in data set [7] is “yes”. For the same compound, the “Hepatotoxicity (choleostasis)” value in [8] came to 2. Besides, the “Hepatotoxicity (mechanism)” value in data set [9] is given as “Dose-dependant”. Besides, the “Hepatotoxicity (cytolytic)” value in [10] is listed as 3. Also, the “Hepatotoxicity (chronic liver disease)” value in [11] turned out to be 0. In [12], the “Hepatotoxicity (granulomatous hepatitis)” value turned out to be 0. Further, in data set [13], the “Hepatotoxicity (time to onset)” value worked out at 2 days - 25 days. Besides, in data set [14], the “Hepatotoxicity (malignant tumour)” value worked out at 0. Besides, the “Hepatotoxicity (severe hepatitis)” value in data set [15] was 0. Also, the “Hepatotoxicity (moderate)” value in data set [16] is listed as 71; in data set [17] it was 30%.
With `CNCCCN1c2ccccc2CCc2ccccc21` [DESIPRAMINE], the “Hepatotoxicity (cirrhosis)” value in data set [1] was found to be 0. In addition, the “Hepatotoxicity (association with vascular disease)” value in data set [2] worked out at 0. In addition, the “Hepatotoxicity (comment)” value in data set [3] is given as “RC/IMIPRAMINE/TRIMIPRAMINE/CYAMEMAZINE”. The “Hepatotoxicity (steatosis)” value in data set [5] worked out at 0. Moreover, the “Hepatotoxicity (benign tumour)” value in [6] is listed as 0. Further, the “Hepatotoxicity (animal toxicity known)” value in data set [7] is on record as “yes”. Also, in [8] (Liver), the “Hepatotoxicity (choleostasis)” value was 1. In addition, the “Hepatotoxicity (mechanism)” value in data set [9] (Liver) is “Allergic”. Also, the “Hepatotoxicity (cytolytic)” value in data set [10] (Liver) amounted to 5. For the same compound, the “Hepatotoxicity (chronic liver disease)” value in [11] is recorded as 0. The “Hepatotoxicity (granulomatous hepatitis)” value in data set [12] (Liver) came to 0. The “Hepatotoxicity (time to onset)” value in [13] amounted to 1 week - 1 month. Moreover, in data set [14], the “Hepatotoxicity (malignant tumour)” value amounted to 0. In addition, in [15] (Liver), the “Hepatotoxicity (severe hepatitis)” value was found to be 1. The “Hepatotoxicity (moderate)” value in data set [16] turned out to be 4; in data set [17] (Liver), 8.7%. Also, the “Hepatotoxicity (acute)” value in [18] (Liver) stood at 0%.
In the case of `Clc1ccccc1CN1CCc2sccc2C1` [TICLOPIDINE], the “Hepatotoxicity (cirrhosis)” value in data set [1] was found to be 0. The “Hepatotoxicity (association with vascular disease)” value in data set [2] is 0. The “Hepatotoxicity (comment)” value in [3] is recorded as “CHOLANGITE CHOLESTASE_PROLONGEE AC_ANTI-N”. Also, in [5], the “Hepatotoxicity (steatosis)” value was determined as 1. The “Hepatotoxicity (benign tumour)” value in [6] was 0. Further, the “Hepatotoxicity (animal toxicity known)” value in data set [7] is reported as “yes”. The “Hepatotoxicity (choleostasis)” value in [8] (Liver) was determined as 56. In data set [9] (Liver), the “Hepatotoxicity (mechanism)” value is recorded as “Allergic”. Also, the “Hepatotoxicity (cytolytic)” value in data set [10] (Liver) stood at 15. Moreover, the “Hepatotoxicity (chronic liver disease)” value in data set [11] stood at 1. In addition, the “Hepatotoxicity (granulomatous hepatitis)” value in data set [12] (Liver) was determined as 2. Moreover, the “Hepatotoxicity (time to onset)” value in data set [13] is given as 1 week - 3 years. In [14], the “Hepatotoxicity (malignant tumour)” value was 0.
With `CC[C@]1(O)C[C@@H]2CN(CCc3c([nH]c4ccccc34)[C@@](C(=O)OC)(c3cc4c(cc3OC)N(C)[C@H]3[C@@](O)(C(=O)OC)[C@H](OC(C)=O)[C@]5(CC)C=CCN6CC[C@]43[C@@H]65)C2)C1` [VINBLASTINE], the “Hepatotoxicity (cirrhosis)” value in [1] was found to be 0. The “Hepatotoxicity (association with vascular disease)” value in data set [2] is recorded as 1. For the same compound, in [3], the “Hepatotoxicity (comment)” value is listed as “I/DOXORUBICINE”. The “Hepatotoxicity (acute)” value in data set [4] is given as 1; in [18], 0%. Besides, the “Hepatotoxicity (steatosis)” value in data set [5] stood at 0. In data set [6], the “Hepatotoxicity (benign tumour)” value is on record as 0. Moreover, in data set [7], the “Hepatotoxicity (animal toxicity known)” value is “yes”. The “Hepatotoxicity (choleostasis)” value in [8] came out at 1. The “Hepatotoxicity (cytolytic)” value in data set [10] is on record as 0. The “Hepatotoxicity (chronic liver disease)” value in data set [11] is 0. Further, the “Hepatotoxicity (granulomatous hepatitis)” value in [12] is recorded as 0. Also, in data set [13], the “Hepatotoxicity (time to onset)” value was determined as 2 cures. Besides, the “Hepatotoxicity (malignant tumour)” value in [14] was 0. Moreover, the “Hepatotoxicity (severe hepatitis)” value in data set [15] came out at 0. Besides, the figures for the “Hepatotoxicity (moderate)” value in data set [16] and in data set [17] were 5 and 22.6%, respectively.
Regarding PARAFFIN, in data set [1], the “Hepatotoxicity (cirrhosis)” value was 0. Further, in [2], the “Hepatotoxicity (association with vascular disease)” value came out at 0. Also, the “Hepatotoxicity (comment)” value in [3] is “LIPOGRANULOMES”. In addition, the “Hepatotoxicity (acute)” value in [4] was 0; in [18] it was 0%. Also, the “Hepatotoxicity (steatosis)” value in [5] is 7. In addition, the “Hepatotoxicity (benign tumour)” value in data set [6] is listed as 0. Further, the “Hepatotoxicity (animal toxicity known)” value in [7] is “yes”. In [8], the “Hepatotoxicity (choleostasis)” value was 0. Moreover, the “Hepatotoxicity (cytolytic)” value in data set [10] came out at 0. In addition, the “Hepatotoxicity (chronic liver disease)” value in data set [11] was found to be 0. For the same compound, in data set [12], the “Hepatotoxicity (granulomatous hepatitis)” value came out at 0. The “Hepatotoxicity (time to onset)” value in data set [13] is recorded as 10 years. In data set [14], the “Hepatotoxicity (malignant tumour)” value is 0. In data set [15], the “Hepatotoxicity (severe hepatitis)” value is recorded as 0. In addition, the “Hepatotoxicity (moderate)” value in data set [16] is recorded as 0; in data set [17], 0%.

For the origin of these results see ChEMBL document CHEMBL3137667, “[Drug-induced liver injury; fourteenth updated edition of the bibliographic database of liver injuries and related drugs]” (Gastroenterol Clin Biol, 2004).
